Values quoted from earlier work as cited in patent publication US20240252431A1, “PULMONARY BIGUANIDE FORMULATIONS AND DELIVERY DEVICES” (Onconox Inc., priority 2021, published 2024).

Legend:
[1] = system: lung fibrosis elicited by bleomycin; details: mouse bleomycin model; treatment starting three weeks after lung injury, continuing five weeks
[2] = system: radiation induced pneumonitis; details: in vivo

CN(C)C(=N)N=C(N)N [Metformin, metformin]
effect on established lung fibrosis [1]: reverse established lung fibrosis | effect on radiation induced pneumonitis [2]: protect against radiation induced pneumonitis
